Holding throughout (format): binding
Experiment [1] addresses T1, panel of 442 kinases (Homo sapiens, UniProt O94804).
T1 construct: purchased KINOMEscan
The following applies: Compound Concentration 10 µM. The text has this:
(§1) We assessed the selectivity of members of this scaffold using the KINOMEscan methodology across a near comprehensive panel of 442 kinases [[18,27]].

The target of experiment [2] is T2, panel of 442 kinases (Homo sapiens, UniProt P08922).
T2 construct: purchased KINOMEscan
T2 sequence (P08922 28-2347): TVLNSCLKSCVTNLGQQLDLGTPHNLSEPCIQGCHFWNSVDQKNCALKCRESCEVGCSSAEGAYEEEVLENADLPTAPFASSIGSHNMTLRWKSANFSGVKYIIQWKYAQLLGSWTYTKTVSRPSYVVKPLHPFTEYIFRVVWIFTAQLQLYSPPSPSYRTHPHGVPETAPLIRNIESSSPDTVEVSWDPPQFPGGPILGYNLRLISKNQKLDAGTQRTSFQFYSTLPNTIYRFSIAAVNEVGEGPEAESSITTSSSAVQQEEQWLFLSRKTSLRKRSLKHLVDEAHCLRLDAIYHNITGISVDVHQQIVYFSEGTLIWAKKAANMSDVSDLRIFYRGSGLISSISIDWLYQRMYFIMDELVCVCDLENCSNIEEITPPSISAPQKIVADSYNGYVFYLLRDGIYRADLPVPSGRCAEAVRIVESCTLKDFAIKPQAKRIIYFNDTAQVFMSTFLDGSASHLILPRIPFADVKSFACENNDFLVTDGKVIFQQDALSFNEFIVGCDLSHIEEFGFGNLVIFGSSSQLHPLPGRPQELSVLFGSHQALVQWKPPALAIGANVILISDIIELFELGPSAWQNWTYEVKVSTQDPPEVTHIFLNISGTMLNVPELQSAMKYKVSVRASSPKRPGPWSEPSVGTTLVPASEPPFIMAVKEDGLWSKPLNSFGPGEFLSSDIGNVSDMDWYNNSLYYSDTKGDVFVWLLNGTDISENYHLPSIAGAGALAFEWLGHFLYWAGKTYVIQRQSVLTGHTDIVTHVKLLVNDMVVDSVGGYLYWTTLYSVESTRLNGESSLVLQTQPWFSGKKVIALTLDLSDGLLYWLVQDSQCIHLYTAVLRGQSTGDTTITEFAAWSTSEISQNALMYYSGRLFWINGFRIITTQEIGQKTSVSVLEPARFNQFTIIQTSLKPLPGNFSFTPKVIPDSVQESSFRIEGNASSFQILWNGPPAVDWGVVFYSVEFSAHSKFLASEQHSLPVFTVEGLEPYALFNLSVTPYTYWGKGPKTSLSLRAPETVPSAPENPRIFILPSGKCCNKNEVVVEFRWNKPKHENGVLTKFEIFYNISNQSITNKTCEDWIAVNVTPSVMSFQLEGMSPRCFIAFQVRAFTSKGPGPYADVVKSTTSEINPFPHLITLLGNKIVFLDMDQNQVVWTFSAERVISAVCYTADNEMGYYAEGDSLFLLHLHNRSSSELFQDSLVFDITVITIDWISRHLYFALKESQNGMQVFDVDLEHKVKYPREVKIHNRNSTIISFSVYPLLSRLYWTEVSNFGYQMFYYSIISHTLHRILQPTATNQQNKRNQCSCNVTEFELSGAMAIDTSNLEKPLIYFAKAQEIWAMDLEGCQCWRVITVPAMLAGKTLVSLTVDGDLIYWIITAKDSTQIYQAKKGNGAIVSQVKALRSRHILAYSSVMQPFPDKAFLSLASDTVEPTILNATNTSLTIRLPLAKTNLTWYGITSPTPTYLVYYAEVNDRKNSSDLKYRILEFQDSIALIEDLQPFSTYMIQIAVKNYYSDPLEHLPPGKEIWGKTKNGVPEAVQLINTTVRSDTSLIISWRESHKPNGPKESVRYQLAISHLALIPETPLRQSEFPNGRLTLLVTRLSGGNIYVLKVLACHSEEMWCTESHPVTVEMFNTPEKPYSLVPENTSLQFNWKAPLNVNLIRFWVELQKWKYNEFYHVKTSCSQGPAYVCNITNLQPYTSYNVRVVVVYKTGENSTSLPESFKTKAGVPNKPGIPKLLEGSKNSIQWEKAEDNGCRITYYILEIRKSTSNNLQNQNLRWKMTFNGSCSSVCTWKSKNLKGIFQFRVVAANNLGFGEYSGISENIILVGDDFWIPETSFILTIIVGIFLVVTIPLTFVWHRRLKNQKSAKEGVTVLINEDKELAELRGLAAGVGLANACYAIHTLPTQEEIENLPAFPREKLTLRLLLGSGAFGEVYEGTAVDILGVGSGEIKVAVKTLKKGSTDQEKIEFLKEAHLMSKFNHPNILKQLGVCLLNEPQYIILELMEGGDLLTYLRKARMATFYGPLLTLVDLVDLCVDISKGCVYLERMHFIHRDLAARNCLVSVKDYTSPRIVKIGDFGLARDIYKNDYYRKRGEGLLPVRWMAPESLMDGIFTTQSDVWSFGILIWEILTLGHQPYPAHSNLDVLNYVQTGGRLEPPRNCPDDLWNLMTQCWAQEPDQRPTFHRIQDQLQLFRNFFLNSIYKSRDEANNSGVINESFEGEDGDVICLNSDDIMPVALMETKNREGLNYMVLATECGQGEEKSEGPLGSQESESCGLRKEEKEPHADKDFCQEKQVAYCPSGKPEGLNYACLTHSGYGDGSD
The following applies: Compound Concentration 10 µM.
Source text: as §1

The target in experiment [3] is T3, panel of 442 kinases (Homo sapiens, UniProt P14616).
T3 construct: purchased KINOMEscan
Particulars: Compound Concentration 10 µM.
Source text: as §1

The target of experiment [4] is T4, panel of 442 kinases (Homo sapiens, UniProt P57059).
T4 construct: purchased KINOMEscan
T4 sequence (P57059 whole entry): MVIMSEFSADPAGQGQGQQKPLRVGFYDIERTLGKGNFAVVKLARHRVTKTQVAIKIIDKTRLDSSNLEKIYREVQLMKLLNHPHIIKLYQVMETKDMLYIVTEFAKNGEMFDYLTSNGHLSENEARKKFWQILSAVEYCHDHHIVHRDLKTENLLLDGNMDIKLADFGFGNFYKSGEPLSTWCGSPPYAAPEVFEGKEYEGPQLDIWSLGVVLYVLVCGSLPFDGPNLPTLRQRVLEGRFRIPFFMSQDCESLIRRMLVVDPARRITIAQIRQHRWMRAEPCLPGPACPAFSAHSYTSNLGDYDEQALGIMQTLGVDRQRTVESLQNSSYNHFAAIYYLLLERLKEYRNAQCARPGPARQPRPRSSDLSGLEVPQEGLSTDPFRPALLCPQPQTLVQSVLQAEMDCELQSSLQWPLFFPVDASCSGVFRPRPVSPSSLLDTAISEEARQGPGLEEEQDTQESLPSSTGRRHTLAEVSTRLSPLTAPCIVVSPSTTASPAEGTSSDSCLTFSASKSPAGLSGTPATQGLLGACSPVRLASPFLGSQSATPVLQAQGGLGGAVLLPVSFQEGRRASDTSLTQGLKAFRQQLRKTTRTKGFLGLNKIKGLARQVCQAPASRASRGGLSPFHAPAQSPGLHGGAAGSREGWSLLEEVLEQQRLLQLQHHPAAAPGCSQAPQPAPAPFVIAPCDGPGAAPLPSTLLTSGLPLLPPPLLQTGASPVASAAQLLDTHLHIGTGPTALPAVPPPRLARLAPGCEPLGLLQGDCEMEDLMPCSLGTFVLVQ
Particulars: kinase SIK; compound concentration 10 µM.
Source text: as §1

T1 sequence (O94804 whole entry): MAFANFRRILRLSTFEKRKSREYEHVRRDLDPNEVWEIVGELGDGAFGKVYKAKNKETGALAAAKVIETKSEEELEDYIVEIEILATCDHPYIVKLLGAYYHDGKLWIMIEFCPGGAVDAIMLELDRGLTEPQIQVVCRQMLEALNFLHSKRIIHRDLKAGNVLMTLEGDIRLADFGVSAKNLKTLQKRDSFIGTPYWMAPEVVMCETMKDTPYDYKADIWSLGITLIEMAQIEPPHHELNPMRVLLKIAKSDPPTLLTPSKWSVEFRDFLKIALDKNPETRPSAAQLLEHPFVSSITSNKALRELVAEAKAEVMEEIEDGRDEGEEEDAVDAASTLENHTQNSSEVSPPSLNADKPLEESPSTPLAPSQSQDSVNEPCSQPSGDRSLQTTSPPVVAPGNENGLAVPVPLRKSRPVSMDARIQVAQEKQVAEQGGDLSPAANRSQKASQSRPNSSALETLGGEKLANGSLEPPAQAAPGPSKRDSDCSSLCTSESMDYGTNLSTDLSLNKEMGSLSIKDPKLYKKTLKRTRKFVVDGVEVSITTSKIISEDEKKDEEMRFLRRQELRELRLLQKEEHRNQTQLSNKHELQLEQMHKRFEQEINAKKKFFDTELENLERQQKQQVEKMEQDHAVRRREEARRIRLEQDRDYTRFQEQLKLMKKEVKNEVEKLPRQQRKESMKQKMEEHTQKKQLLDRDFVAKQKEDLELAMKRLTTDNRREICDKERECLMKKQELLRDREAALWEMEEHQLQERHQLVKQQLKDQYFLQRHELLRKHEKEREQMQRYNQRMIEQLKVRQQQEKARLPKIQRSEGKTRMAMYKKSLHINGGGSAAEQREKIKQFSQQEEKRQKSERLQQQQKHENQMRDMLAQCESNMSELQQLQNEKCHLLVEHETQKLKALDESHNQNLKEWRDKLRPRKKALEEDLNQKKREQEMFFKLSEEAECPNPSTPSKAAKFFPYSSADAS

Take `CCOc1cc(C(=O)N2CCC(N3CCN(C)CC3)CC2)ccc1Nc1ncc2c(n1)N(C1CCCC1)c1ccccc1C(=O)N2C` [Compound 26]: the “KINOMEscan: LOK” value at panel of 442 kinases [1] was determined as 100. Besides, at panel of 442 kinases [2], the “KINOMEscan: ROS1” value was determined as 20. The “KINOMEscan: INSRR” value on panel of 442 kinases [3] was determined as 100. Besides, at panel of 442 kinases [4], the “% Ctrl, SIK” value was 100 % Ctrl.

Consider `COc1cc(C(=O)N2CCC(N3CCN(C)CC3)CC2)ccc1Nc1ncc2c(n1)N1CCc3cccc(c31)C(=O)N2C` [Compound 24], for which the “KINOMEscan: LOK” value on panel of 442 kinases [1] is given as 70. Besides, the “KINOMEscan: ROS1” value at panel of 442 kinases [2] is given as 24. The “% Ctrl, SIK” value at panel of 442 kinases [4] came out at 90 % Ctrl.

Regarding `COc1cc(C(=O)N2CCC(N3CCN(C)CC3)CC2)ccc1Nc1ncc2c(n1)N(C)c1ccccc1C(=O)N2C` [15 (LRRK2-IN-1)], the “KINOMEscan: LOK” value on panel of 442 kinases [1] was 100. Also, the “KINOMEscan: ROS1” value on panel of 442 kinases [2] turned out to be 12. For the same compound, the “KINOMEscan: INSRR” value at panel of 442 kinases [3] was found to be 97. Further, on panel of 442 kinases [4], the “% Ctrl, SIK” value amounted to 77 % Ctrl.

Regarding `COc1cc(C(=O)N2CCC(N3CCN(C)CC3)CC2)ccc1Nc1ncc2c(n1)N(C1CCCC1)c1ccccc1C(=O)N2C` [Compound 25, 11-cyclopentyl-2-((2-methoxy-4-(4-(4-methylpiperazin-1-yl)piperidine-1-carbonyl)phenyl)amino)-5-methyl-5H-benzo[e]pyrimido[5,4-b][1,4]diazepin-6(11H)-one], the “KINOMEscan: LOK” value on panel of 442 kinases [1] came to 100. For the same compound, the “KINOMEscan: ROS1” value on panel of 442 kinases [2] stood at 3.4. Further, the “KINOMEscan: INSRR” value at panel of 442 kinases [3] turned out to be 94. For the same compound, the “% Ctrl, SIK” value at panel of 442 kinases [4] is on record as 98 % Ctrl.
